Experimental data from patent US7625917B2, “Thiolesters and uses thereof” (priority 1998, dated 2009).
Where two headings read alike, the source gives them in different places. Values belong to the compound of their own block, whether it stands above or below them.

What was measured:
HIV-1RF = experiment: XTT cytoprotection assay (antiviral activity); assay type: cell-based; details: for EC50: read-out: EC50; for loss of antiviral activity of BITA vs disulfide form, fold decrease: from Table 2
Source text: One exemplary means to determine antiviral activity is with CEM-SS cells and virus (e.g., HIV-1RF) (MOI=0.01) using the XTT (2,3-bis[2-methoxy-4-nitro-5-sulfophenyl]-5-[(phenylamino)carbonyl]-2H-tetrazolium hydroxide) cytoprotection assay, as described by Rice (1993) PNAS 90:9721-9724, and Rice (1997) Antimicrob. Agents Chemother. 41:419-426. Briefly, cells are infected with HIV-1 RF (or other virus to be tested) in the presence of various dilutions of test compounds (thiolesters and controls). The cultures are incubated for seven days. During this time control cultures without protective compounds (i.e., compounds with anti-viral activity) replicate virus, induce syncytia, and result in about 90% cell death. The cell death is measured by XTT dye reduction. XTT is a soluble tetrazolium dye that measures mitochondrial energy output, similar to MTT. Positive controls using dextran sulfate (an attachment inhibitor) or 3′-Azido-2′-3′-dideoxythymidine, AZT (a reverse transcriptase inhibitor) are added to each assay. Individual assays are done in duplicate using a sister plate method.
Effective antiviral concentrations providing 50% cytoprotection (EC50), and cellular growth inhibitory concentrations causing 50% cytotoxicity (IC50) are calculated.

CEM-SS cells = experiment: cells; assay type: cell-based
Protocol: Agents Chemother. […] Briefly, cells are infected with HIV-1 RF (or other virus to be tested) in the presence of various dilutions of test compounds (thiolesters and controls). The cultures are incubated for seven days. […] The cell death is measured by XTT dye reduction. XTT is a soluble tetrazolium dye that measures mitochondrial energy output, similar to MTT. Positive controls using dextran sulfate (an attachment inhibitor) or 3′-Azido-2′-3′-dideoxythymidine, AZT (a reverse transcriptase inhibitor) are added to each assay. Individual assays are done in duplicate using a sister plate method.

[1] = molecular target: T1, recombinant HIV-1 NCp7 protein (Human immunodeficiency virus type 1 group M subtype B, UniProt P03347); experiment: Trp37 zinc finger fluorescence (zinc ejection) assay; assay type: biochemical; details: for Zinc Finger Reactivity RFU/min: average decrease in relative fluorescence units over 30 min
T1 construct: recombinant HIV-1 NCp7 protein
Protocol: Zinc finger reactivity was measured using a Zn specific fluorochrome, TSQ, N-(6-methoxy-8-quinolyl)-p-toluenesulfonamide, assay or a Trp37 zinc finger fluorescence assay. Fluorescent measurements of the Trp37 residue in the C-terminal finger of recombinant HIV-1 NCp7 protein were performed as described by Rice (1995) Science 270:1194-1197; Rice (1997) Antimicrob. Agents Chemother. 41:419-426. Measurement of Zn ejection from both fingers was measured using the Zn-selective fluorchrome probe TSQ (Molecular Probes, Eugene Oreg.) as described by Rice (1996) J. Med. Chem 39:3606-3616. […] Briefly, 50 nM NCp7 was treated with test compounds for 1 hour at RT in […] buffer containing 10% glycerol and 50 mM Tris-HCl (pH 7.5). Labeled oligomer (0.1 picomole, end labeled [^32P] was added in an equal volume of buffer containing 10% glycerol, 50 mM Tris-HCl (pH 7.5), 400 mM KCl and 40 mM MgCl2. The reaction was continued for 15 min at room temperature, and a total of […] (or ¼ of the total reaction volume) was separated on nondenaturing 4.5% polyacrylamide gels in 0.5× Tris-Borate electrophoresis buffer. NCp7-oligomer complexes were visualized by autoradiography.
Changes in the intrinsic fluorescence of aromatic protein moieties are commonly used to monitor a reaction which involves a change in protein conformation. In the present invention, fluorescence can be used to monitor the loss of metal ion from a zinc finger, e.g., the loss of zinc from a CCHC retroviral zinc finger protein, after contact with a thiolester of the invention. The intrinsic fluorescence of Trp37 in the second zinc finger of HIV-1 NC protein has been used to monitor nucleic acid binding and conformation of the zinc finger complex (see, Summers (1992) supra).
Zinc ejection is measured by the ability of compounds to chemically attack the cysteines in purified NCp7 protein resulting in a loss of fluorescence due to the. movement of the tryptophan 37 residue […] position on the protein. Zinc ejection is measured and expressed as either percent decrease in total fluorescence or decrease in relative fluorescence units per min during a 30 min assay (RFU/min). A thiolester is considered within the scope of the invention if any amount of zinc ejection is detected.

[2] = Table 1, 50% cytotoxicity, read-out: IC50
[3] = Table 2, 50% cytotoxicity, read-out: IC50
[4] = Table 4, 50% cytotoxicity, read-out: IC50

SMILES: CC(=O)NS(=O)(=O)c1ccc(NC(=O)c2ccccc2NC(=O)CCCl)cc1 [Compound 37, N-[2-(3-chloro-propionamido)benzoyl]sulfacetamide]
- antiviral activity (in words) (HIV-1RF): neither had appreciable antiviral activity
- IC50 (CEM-SS cells; Table 5, 50% cytotoxicity, read-out: IC50): >316 µM
- zinc finger reactivity (in words) [1]: modest zinc finger reactivity
- Zinc Finger Reactivity RFU/min ([1]; Table 5): 2.0 RFU/min

SMILES: CC(=O)NS(=O)(=O)c1ccc(NC(=O)c2ccccc2SSc2ccccc2C(=O)Nc2ccc(S(=O)(=O)NC(C)=O)cc2)cc1 [Compound 2 D, N,N′-(2,2′-dithiodibenzoyl)-bis-sulfacetamide]
- EC50 (HIV-1RF; Table 1): 1.5 µM
- IC50 (CEM-SS cells; [2]): > 200 µM

SMILES: NS(=O)(=O)c1ccc(Cn2sc3ccccc3c2=O)cc1 [Compound 23 BITA]
- EC50 (HIV-1RF; Table 2): 13.8 µM
- loss of antiviral activity of BITA vs disulfide form, fold decrease (HIV-1RF): 42 fold
- IC50 (CEM-SS cells; read-out: toxicity / IC50): 53.7 µM

SMILES: O=C(CCCCBr)Sc1ccccc1C(=O)Nc1ccc(S(=O)(=O)c2ccc(NS(=O)(=O)Cc3ccccc3[N+](=O)[O-])cc2)cc1 [Compound 49]
- IC50 (CEM-SS cells; Table 6, 50% cytotoxicity, read-out: IC50): > 316 µM
- Zinc Finger Reactivity RFU/min ([1]; Table 6): 1.9 RFU/min

SMILES: NS(=O)(=O)c1ccc(CCn2sc3ccccc3c2=O)cc1 [Compound 24 BITA]
- EC50 (HIV-1RF; Table 2): 2 µM
- loss of antiviral activity of BITA vs disulfide form, fold decrease (HIV-1RF): 5 fold
- IC50 (CEM-SS cells; [3]): 45.5 µM

SMILES: O=C(Nc1ccc(S(=O)(=O)Nc2ccc(Cl)nn2)cc1)c1ccccc1SSc1ccccc1C(=O)Nc1ccc(S(=O)(=O)Nc2ccc(Cl)nn2)cc1 [Compound 4 D]
- EC50 (HIV-1RF; Table 1): 2.9 µM
- IC50 (CEM-SS cells; [2]): 18.3 µM

SMILES: Nc1cccc(S(=O)(=O)c2cccc(NC(=O)c3ccccc3SSc3ccccc3C(=O)Nc3cccc(S(=O)(=O)c4cccc(N)c4)c3)c2)c1 [Compound 35]
- IC50 (CEM-SS cells; [4]): 81.5 µM
- zinc finger reactivity / zinc ejection rate [1]: 0.92 RFU/min

SMILES: COc1ccnc(NS(=O)(=O)c2ccc(-n3sc4ccccc4c3=O)cc2)n1 [Compound 7 BITA]
- EC50 (HIV-1RF; Table 1): 8.8 µM
- IC50 (CEM-SS cells; [2]): 57.4 µM

SMILES: CC(=O)Nc1cccc(S(=O)(=O)c2cccc(NC(=O)c3ccccc3SSc3ccccc3C(=O)Nc3cccc(S(=O)(=O)c4cccc(NC(C)=O)c4)c3)c2)c1 [Compound 36]
- IC50 (CEM-SS cells; [4]): 5.9 µM
- zinc finger reactivity / zinc ejection rate [1]: 2 RFU/min

SMILES: CC(=O)NS(=O)(=O)c1ccc(-n2sc3ccccc3c2=O)cc1 [Compound 2 BITA, N-[4-(3-oxo-3H-benz[d]isothiazol-2-yl)phenylsulfonyl] acetamide]
- EC50 (HIV-1RF; Human immunodeficiency virus 1, Table 1): 12.6 µM
- IC50 (CEM-SS cells; Homo sapiens, CEM-SS, Table 1, 50% cytotoxicity, read-out: IC50): 34 µM

SMILES: COc1cnc(NS(=O)(=O)c2ccc(-n3sc4ccccc4c3=O)cc2)nc1 [Compound 8 BITA]
- EC50 (HIV-1RF; Table 1): 17.8 µM
- IC50 (CEM-SS cells; [2]): 57.6 µM

SMILES: NS(=O)(=O)c1ccc(CCNC(=O)c2ccccc2SSc2ccccc2C(=O)NCCc2ccc(S(N)(=O)=O)cc2)cc1 [Compound 24 D, N,N′-(2,2′-dithiodibenzoyl)-bis-4-(2-aminoethyl)benzene-sulfonamide]
- EC50 (HIV-1RF; Table 2): 0.41 µM
- IC50 (CEM-SS cells; [3]): 52.8 µM

SMILES: O=c1c2ccccc2sn1-c1ccc(S(=O)(=O)Nc2ccc(Cl)nn2)cc1 [Compound 4 BITA]
- EC50 (HIV-1RF; Table 1): 7.1 µM
- IC50 (CEM-SS cells; [2]): 19.2 µM

SMILES: COc1ccc(NS(=O)(=O)c2ccc(-n3sc4ccccc4c3=O)cc2)nn1 [Compound 12 BITA]
- EC50 (HIV-1RF; Table 1): 22.6 µM
- IC50 (CEM-SS cells; [2]): 55.3 µM

SMILES: COc1cc(NS(=O)(=O)c2ccc(-n3sc4ccccc4c3=O)cc2)nc(OC)n1 [Compound 6 BITA]
- EC50 (HIV-1RF; Table 1): 7.6 µM
- IC50 (CEM-SS cells; [2]): 56.6 µM

SMILES: COc1ccnc(NS(=O)(=O)c2ccc(NC(=O)c3ccccc3SSc3ccccc3C(=O)Nc3ccc(S(=O)(=O)Nc4nccc(OC)n4)cc3)cc2)n1 [Compound 7 D]
- EC50 (HIV-1RF; Table 1): 4.2 µM
- IC50 (CEM-SS cells; [2]): 56.7 µM

Further lines, with some results ahead:

- EC50 (HIV-1RF; Table 1): 3.8 µM
SMILES: O=C(NS(=O)(=O)c1ccc(NC(=O)c2ccccc2SSc2ccccc2C(=O)Nc2ccc(S(=O)(=O)NC(=O)c3ccccc3)cc2)cc1)c1ccccc1 [Compound 3 D]
- IC50 (CEM-SS cells; [2]): 54.1 µM

- EC50 (HIV-1RF; Table 1): 6.5 µM
SMILES: Cc1cc(NS(=O)(=O)c2ccc(-n3sc4ccccc4c3=O)cc2)nc(C)n1 [Compound 19 BITA]
- IC50 (CEM-SS cells; [2]): 39.7 µM

- EC50 (HIV-1RF; Table 1): 2.3 µM
SMILES: NS(=O)(=O)c1ccc(NS(=O)(=O)c2ccc(NC(=O)c3ccccc3SSc3ccccc3C(=O)Nc3ccc(S(=O)(=O)Nc4ccc(S(N)(=O)=O)cc4)cc3)cc2)cc1 [Compound 22 D]
- IC50 (CEM-SS cells; read-out: toxicity / IC50): 43 µM

- EC50 (HIV-1RF; Table 1): 2 µM
SMILES: O=C(Nc1ccc(S(=O)(=O)Nc2ncccn2)cc1)c1ccccc1SSc1ccccc1C(=O)Nc1ccc(S(=O)(=O)Nc2ncccn2)cc1 [Compound 5 D]
- IC50 (CEM-SS cells; [2]): 46.4 µM

- EC50 (HIV-1RF; Table 1): 4.2 µM
SMILES: COc1ccc(NS(=O)(=O)c2ccc(NC(=O)c3ccccc3SSc3ccccc3C(=O)Nc3ccc(S(=O)(=O)Nc4ccc(OC)nn4)cc3)cc2)nn1 [Compound 12 D]
- IC50 (CEM-SS cells; [2]): 53.8 µM

- EC50 (HIV-1RF; Table 1): 111 µM
SMILES: NC(N)=NS(=O)(=O)c1ccc(NC(=O)c2ccccc2SSc2ccccc2C(=O)Nc2ccc(S(=O)(=O)N=C(N)N)cc2)cc1 [Compound 21 D]
- IC50 (CEM-SS cells; [2]): > 316 µM

- EC50 (HIV-1RF; Table 1): 6.5 µM
SMILES: O=c1c2ccccc2sn1-c1ccc(S(=O)(=O)Nc2ncccn2)cc1 [Compound 5 BITA]
- IC50 (CEM-SS cells; [2]): 50.8 µM

- EC50 (HIV-1RF; Table 1): 6.9 µM
SMILES: Cc1cc(C)nc(NS(=O)(=O)c2ccc(-n3sc4ccccc4c3=O)cc2)n1 [Compound 9 BITA]
- IC50 (CEM-SS cells; [2]): 17.1 µM

- EC50 (HIV-1RF; Table 1): 12.8 µM
SMILES: Cc1noc(NS(=O)(=O)c2ccc(-n3sc4ccccc4c3=O)cc2)c1C [Compound 20 BITA]
- IC50 (CEM-SS cells; [2]): 39 µM

- EC50 (HIV-1RF; Table 1): 1.6 µM
SMILES: Cc1cc(C)nc(NS(=O)(=O)c2ccc(NC(=O)c3ccccc3SSc3ccccc3C(=O)Nc3ccc(S(=O)(=O)Nc4nc(C)cc(C)n4)cc3)cc2)n1 [Compound 9 D]
- IC50 (CEM-SS cells; [2]): 32.2 µM

- EC50 (HIV-1RF; Table 1): 1.9 µM
SMILES: Cc1cc(NS(=O)(=O)c2ccc(NC(=O)c3ccccc3SSc3ccccc3C(=O)Nc3ccc(S(=O)(=O)Nc4cc(C)nc(C)n4)cc3)cc2)nc(C)n1 [Compound 19 D]
- IC50 (CEM-SS cells; [2]): 18.2 µM

- EC50 (HIV-1RF; Table 1): 9.3 µM
SMILES: O=C(NS(=O)(=O)c1ccc(-n2sc3ccccc3c2=O)cc1)c1ccccc1 [Compound 3 BITA]
- IC50 (CEM-SS cells; [2]): 49.5 µM

- EC50 (HIV-1RF; Table 1): 2.5 µM
SMILES: Cc1noc(NS(=O)(=O)c2ccc(NC(=O)c3ccccc3SSc3ccccc3C(=O)Nc3ccc(S(=O)(=O)Nc4onc(C)c4C)cc3)cc2)c1C [Compound 20 D]
- IC50 (CEM-SS cells; [2]): 44.2 µM

- EC50 (HIV-1RF; Table 1): 0.72 µM
SMILES: O=C(Nc1ccc(S(=O)(=O)Nc2cnc3ccccc3n2)cc1)c1ccccc1SSc1ccccc1C(=O)Nc1ccc(S(=O)(=O)Nc2cnc3ccccc3n2)cc1 [Compound 17 D]
- IC50 (CEM-SS cells; [2]): 22.2 µM

- EC50 (HIV-1RF; Table 1): 9.2 µM
SMILES: O=c1c2ccccc2sn1-c1ccc(S(=O)(=O)Nc2cnc3ccccc3n2)cc1 [Compound 17 BITA]
- IC50 (CEM-SS cells; [2]): 54.7 µM

- EC50 (HIV-1RF; Table 1): 6.2 µM
SMILES: NS(=O)(=O)c1ccc(NS(=O)(=O)c2ccc(-n3sc4ccccc4c3=O)cc2)cc1 [Compound 22 BITA]
- IC50 (CEM-SS cells; [2]): 18.1 µM

- EC50 (HIV-1RF; Table 1): 2.1 µM
SMILES: COc1cnc(NS(=O)(=O)c2ccc(NC(=O)c3ccccc3SSc3ccccc3C(=O)Nc3ccc(S(=O)(=O)Nc4ncc(OC)cn4)cc3)cc2)nc1 [Compound 8 D]
- IC50 (CEM-SS cells; [2]): 55.5 µM

- EC50 (HIV-1RF; Table 1): 2.1 µM
SMILES: COc1cc(NS(=O)(=O)c2ccc(NC(=O)c3ccccc3SSc3ccccc3C(=O)Nc3ccc(S(=O)(=O)Nc4cc(OC)nc(OC)n4)cc3)cc2)nc(OC)n1 [Compound 6 D]
- IC50 (CEM-SS cells; [2]): 52.5 µM
